Test results from the CheMixHub viscosity set.
Values joined by “and” are separate entries in the source; they are usually repeats but may differ in a detail not shown here. Equal values may be shown once. ± gives the uncertainty stated by the source.

Assay: xn = mol fraction of the nth substance listed

CN(C)C=O + CCCCO
Conditions	viscosity [mPa·s]
298.15 K, 101 kPa, x1 = 0.5035	1.381 ± 0.34

ClC(Cl)=C(Cl)Cl + CCCCO
Conditions	viscosity [mPa·s]
298.15 K, 101.3 kPa, x1 = 0.6759	1.045 ± 0.01

O=[N+]([O-])c1ccccc1 + CCCCO
viscosity [mPa·s]
Conditions	298.15 K	303.15 K	308.15 K	318.15 K
101 kPa, x1 = 0.2	–	–	1.58 ± 0.019	1.27 ± 0.015
101 kPa, x1 = 0.4	–	–	1.411 ± 0.017	1.128 ± 0.014
101 kPa, x1 = 0.6	–	–	1.339 ± 0.016	1.109 ± 0.013
101 kPa, x1 = 0.8	–	–	1.35 ± 0.016	1.147 ± 0.013
101 kPa, x1 = 0.9	–	–	1.403 ± 0.016	1.196 ± 0.014
101 kPa, x1 = 0.95	–	–	1.453 ± 0.017	1.252 ± 0.015
101.33 kPa, x1 = 0.0625	2.311 ± 0.11	2.075 ± 0.095	–	–
101.33 kPa, x1 = 0.1311	2.142 ± 0.098	1.878 ± 0.087	–	–
101.33 kPa, x1 = 0.2051	1.954 ± 0.09	1.739 ± 0.081	–	–
101.33 kPa, x1 = 0.2885	1.814 ± 0.084	1.611 ± 0.076	–	–
101.33 kPa, x1 = 0.376	1.711 ± 0.08	1.559 ± 0.073	–	–
101.33 kPa, x1 = 0.4747	1.65 ± 0.077	1.423 ± 0.068	–	–
101.33 kPa, x1 = 0.5846	1.589 ± 0.075	1.446 ± 0.069	–	–
101.33 kPa, x1 = 0.7007	1.625 ± 0.076	1.476 ± 0.07	–	–
101.33 kPa, x1 = 0.8442	1.658 ± 0.078	1.509 ± 0.071	–	–

c1ccccc1 + CCCCO
Conditions	viscosity
293.15 K, 101.33 kPa, x2 = 0.2	0.714 ± 0.014 mPa·s and 0.714 ± 0.019 mPa·s
293.15 K, 101.33 kPa, x2 = 0.4	0.898 ± 0.024 mPa·s
293.15 K, 101.33 kPa, x2 = 0.5	1.054 ± 0.021 mPa·s and 1.054 ± 0.029 mPa·s
293.15 K, 101.33 kPa, x2 = 0.6	1.279 ± 0.035 mPa·s
293.15 K, 101.33 kPa, x2 = 0.8	1.92 ± 0.053 mPa·s
298.15 K, 101 kPa, x1 = 0.082	2.158 ± 0.022 mPa·s
298.15 K, 101 kPa, x1 = 0.151	1.88 ± 0.019 mPa·s
298.15 K, 101 kPa, x1 = 0.254	1.511 ± 0.016 mPa·s
298.15 K, 101 kPa, x1 = 0.345	1.277 ± 0.013 mPa·s
298.15 K, 101 kPa, x1 = 0.52	0.919 ± 0.01 mPa·s
298.15 K, 101 kPa, x1 = 0.678	0.754 ± 0.008 mPa·s
298.15 K, 101 kPa, x1 = 0.841	0.63 ± 0.007 mPa·s
298.15 K, 101 kPa, x1 = 0.915	0.601 ± 0.006 mPa·s
298.15 K, 101 kPa, x2 = 0.05	0.604 ± 0.016 mPa·s
298.15 K, 101 kPa, x2 = 0.1	0.62 ± 0.016 mPa·s
298.15 K, 101 kPa, x2 = 0.16	0.64 ± 0.017 mPa·s
298.15 K, 101 kPa, x2 = 0.21	0.664 ± 0.018 mPa·s
298.15 K, 101 kPa, x2 = 0.41	0.842 ± 0.022 mPa·s
298.15 K, 101 kPa, x2 = 0.51	1.006 ± 0.026 mPa·s
298.15 K, 101 kPa, x2 = 0.61	1.178 ± 0.031 mPa·s
298.15 K, 101 kPa, x2 = 0.81	1.684 ± 0.044 mPa·s
298.15 K, 101.33 kPa, x2 = 0.2	0.655 ± 0.013 mPa·s
298.15 K, 101.33 kPa, x2 = 0.216	0.657 ± 0.004 mPa·s
298.15 K, 101.33 kPa, x2 = 0.409	0.824 ± 0.005 mPa·s
298.15 K, 101.33 kPa, x2 = 0.604	1.119 ± 0.007 mPa·s
298.15 K, 101.33 kPa, x2 = 0.808	1.71 ± 0.011 mPa·s
303 K, 101.3 kPa, x1 = 0.1035	1.9 ± 0.059 mPa·s
303 K, 101.3 kPa, x1 = 0.2024	1.601 ± 0.053 mPa·s
303 K, 101.3 kPa, x1 = 0.3037	1.344 ± 0.048 mPa·s
303 K, 101.3 kPa, x1 = 0.4	1.145 ± 0.045 mPa·s
303 K, 101.3 kPa, x1 = 0.5047	0.9759 ± 0.042 mPa·s
303 K, 101.3 kPa, x1 = 0.5931	0.8562 ± 0.041 mPa·s
303 K, 101.3 kPa, x1 = 0.7016	0.7412 ± 0.039 mPa·s
303 K, 101.3 kPa, x1 = 0.766	0.6921 ± 0.038 mPa·s
303 K, 101.3 kPa, x1 = 0.8859	0.611 ± 0.037 mPa·s
303.15 K, 101 kPa, x1 = 0.082	1.918 ± 0.019 mPa·s
303.15 K, 101 kPa, x1 = 0.151	1.668 ± 0.017 mPa·s
303.15 K, 101 kPa, x1 = 0.254	1.354 ± 0.014 mPa·s
303.15 K, 101 kPa, x1 = 0.345	1.145 ± 0.012 mPa·s
303.15 K, 101 kPa, x1 = 0.52	0.838 ± 0.009 mPa·s
303.15 K, 101 kPa, x1 = 0.678	0.694 ± 0.007 mPa·s
303.15 K, 101 kPa, x1 = 0.841	0.587 ± 0.006 mPa·s
303.15 K, 101 kPa, x1 = 0.915	0.564 ± 0.006 mPa·s
303.15 K, 101.33 kPa, x2 = 0.2	0.604 ± 0.016 mPa·s
303.15 K, 101.33 kPa, x2 = 0.4	0.746 ± 0.02 mPa·s
303.15 K, 101.33 kPa, x2 = 0.5	0.864 ± 0.024 mPa·s
303.15 K, 101.33 kPa, x2 = 0.6	1.021 ± 0.028 mPa·s
303.15 K, 101.33 kPa, x2 = 0.8	1.49 ± 0.041 mPa·s
308.15 K, 101 kPa, x1 = 0.082	1.702 ± 0.017 mPa·s
308.15 K, 101 kPa, x1 = 0.151	1.49 ± 0.015 mPa·s
308.15 K, 101 kPa, x1 = 0.254	1.209 ± 0.012 mPa·s
308.15 K, 101 kPa, x1 = 0.345	1.032 ± 0.011 mPa·s
308.15 K, 101 kPa, x1 = 0.52	0.764 ± 0.008 mPa·s
308.15 K, 101 kPa, x1 = 0.678	0.64 ± 0.007 mPa·s
308.15 K, 101 kPa, x1 = 0.841	0.549 ± 0.006 mPa·s
308.15 K, 101 kPa, x1 = 0.915	0.529 ± 0.006 mPa·s
308.15 K, 101.33 kPa, x2 = 0.2	0.562 ± 0.011 mPa·s and 0.562 ± 0.015 mPa·s
308.15 K, 101.33 kPa, x2 = 0.216	0.564 ± 0.003 mPa·s
308.15 K, 101.33 kPa, x2 = 0.4	0.687 ± 0.019 mPa·s
308.15 K, 101.33 kPa, x2 = 0.409	0.691 ± 0.004 mPa·s
308.15 K, 101.33 kPa, x2 = 0.5	0.791 ± 0.016 mPa·s and 0.791 ± 0.021 mPa·s
308.15 K, 101.33 kPa, x2 = 0.6	0.924 ± 0.025 mPa·s
308.15 K, 101.33 kPa, x2 = 0.604	0.911 ± 0.005 mPa·s
308.15 K, 101.33 kPa, x2 = 0.8	1.335 ± 0.036 mPa·s
308.15 K, 101.33 kPa, x2 = 0.808	1.353 ± 0.008 mPa·s
313.15 K, 101 kPa, x1 = 0.082	1.51 ± 0.015 mPa·s
313.15 K, 101 kPa, x1 = 0.151	1.336 ± 0.014 mPa·s
313.15 K, 101 kPa, x1 = 0.254	1.086 ± 0.011 mPa·s
313.15 K, 101 kPa, x1 = 0.345	0.934 ± 0.01 mPa·s
313.15 K, 101 kPa, x1 = 0.52	0.702 ± 0.007 mPa·s
313.15 K, 101 kPa, x1 = 0.678	0.593 ± 0.006 mPa·s
313.15 K, 101 kPa, x1 = 0.841	0.513 ± 0.005 mPa·s
313.15 K, 101 kPa, x1 = 0.915	0.494 ± 0.005 mPa·s
318.15 K, 101 kPa, x1 = 0.082	1.351 ± 0.014 mPa·s
318.15 K, 101 kPa, x1 = 0.151	1.195 ± 0.012 mPa·s
318.15 K, 101 kPa, x1 = 0.254	0.979 ± 0.01 mPa·s
318.15 K, 101 kPa, x1 = 0.345	0.847 ± 0.009 mPa·s
318.15 K, 101 kPa, x1 = 0.52	0.645 ± 0.006 mPa·s
318.15 K, 101 kPa, x1 = 0.678	0.553 ± 0.006 mPa·s
318.15 K, 101 kPa, x1 = 0.841	0.48 ± 0.005 mPa·s
318.15 K, 101 kPa, x1 = 0.915	0.465 ± 0.005 mPa·s
